According to ChEMBL document CHEMBL5154863, “Design and synthesis of quinolinium-based derivatives targeting FtsZ for antibacterial evaluation and mechanistic study” (Eur J Med Chem, 2022):
Activity calls are given as the source filed them. The rule behind the calls is not given here.

Assays:
Staphylococcus aureus [1] = assay: Antibacterial activity against Staphylococcus aureus ATCC 29213 infected in HK-2 cells assessed as inhibition of bacterial growth incubated for 20 to 24 hrs by broth micro dilution method; type: functional; details: time 20-24 hrs
Staphylococcus aureus [2] = assay: Antibacterial activity against methicillin-resistant Staphylococcus aureus ATCC 43300 assessed as inhibition of bacterial growth incubated for 20 to 24 hrs by broth micro dilution method; type: functional; details: time 20-24 hrs
[3] = Ratio of MBC for bactericidal activity against Bacillus subtilis CMCC (B) 63501 to MIC for antibacterial activity against Bacillus subtilis CMCC (B) 63501; type: functional
Enterococcus faecalis = assay: Antibacterial activity against Enterococcus faecalis ATCC 29212 assessed as inhibition of bacterial growth incubated for 20 to 24 hrs by broth micro dilution method; type: functional; details: time 20-24 hrs
Escherichia coli [4] = assay: Antibacterial activity against Escherichia coli ATCC 8739 assessed as inhibition of bacterial growth incubated for 20 to 24 hrs by broth micro dilution method; type: functional; details: time 20-24 hrs
[5] = target: T1, Cell division protein FtsZ (Staphylococcus aureus) (UniProt P0A031); assay: Binding affinity to Staphylococcus aureus FtsZ assessed as increase in alpha helix structure at 8 ug/ml incubated for 30 mins by circular dichroism method (reference value: 30.5 %); details: dose 8.0 µg/ml
T1 sequence (whole entry): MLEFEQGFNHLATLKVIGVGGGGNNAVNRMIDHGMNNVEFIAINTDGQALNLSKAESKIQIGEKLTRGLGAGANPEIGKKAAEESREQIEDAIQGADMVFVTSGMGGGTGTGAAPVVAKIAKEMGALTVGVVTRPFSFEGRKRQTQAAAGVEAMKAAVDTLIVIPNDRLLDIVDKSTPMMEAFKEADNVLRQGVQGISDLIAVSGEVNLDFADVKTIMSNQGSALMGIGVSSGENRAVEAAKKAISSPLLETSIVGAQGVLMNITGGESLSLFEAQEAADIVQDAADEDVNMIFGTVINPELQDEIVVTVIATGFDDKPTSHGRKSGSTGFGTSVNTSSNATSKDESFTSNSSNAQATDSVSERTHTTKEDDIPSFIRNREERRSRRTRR

[6] = target: T1, Cell division protein FtsZ (Staphylococcus aureus); assay: Binding affinity to Staphylococcus aureus FtsZ assessed as decrease in other structure at 8 ug/ml for 30 mins by circular dichroism method (reference value: 34.5 %); parameters: scale not given: the % may be the effect or the level left; details: dose 8.0 µg/ml
Bacillus subtilis [7] = assay: Antibacterial activity against Bacillus subtilis CMCC (B) 63501 assessed as inhibition of bacterial growth incubated for 20 to 24 hrs by broth micro dilution method; type: functional; details: time 20-24 hrs
Staphylococcus aureus [8] = assay: Induction of morphological changes in Staphylococcus aureus ATCC 29213 assessed as enlargement of cell size at 0.5 times MIC for 4 hrs by microscopic analysis; type: functional, organism-based
[9] = Cytotoxicity against human HK-2 cells incubated for 48 hrs by MTT assay; type: toxicity, cell-based
[10] = target: T1, Cell division protein FtsZ (Staphylococcus aureus); assay: Binding affinity to Staphylococcus aureus FtsZ assessed as decrease in random coil structure at 8 ug/ml incubated for 30 mins by circular dichroism method (reference value: 34.5 %); parameters: scale not given: the % may be the effect or the level left; details: dose 8.0 µg/ml
Escherichia coli [11] = assay: Antibacterial activity against NDM-1 expressing Escherichia coli ATCC BAA2469 assessed as inhibition of bacterial growth incubated for 20 to 24 hrs by broth micro dilution method; type: functional; details: time 20-24 hrs
Bacillus subtilis [12] = assay: Bactericidal activity against Bacillus subtilis CMCC (B) 63501 assessed as inhibition of bacterial growth incubated for 24 hrs by resazurin dye based microtiter plate assay; type: functional

## CC1CCN(c2cc(/C=C/c3ccc(N(C)C)cc3)[n+](C)c3ccccc23)CC1.[I-]
Staphylococcus aureus [1]
  MIC: 1 µg/mL
Staphylococcus aureus [2]
  MIC: 1 µg/mL
[3]
  Ratio: 1
Enterococcus faecalis
  MIC: 2 µg/mL
Escherichia coli [4]
  MIC: 64 µg/mL
[5]
  Activity: 41%
[6]
  Activity: 15.1%
Bacillus subtilis [7]
  MIC: 4 µg/mL
Staphylococcus aureus [8]
  Activity: Active
[9]
  IC50 at 48 h: 9.42 µg/mL
[10]
  Activity: 28.4%
Escherichia coli [11]
  MIC: 64 µg/mL
Bacillus subtilis [12]
  MBC: 4 µg/mL
